Measured values as given in US10272110B2, “Methods for promoting HSC engraftment” (CHILDREN'S MEDICAL CENTER CORPORATION, priority 2006, dated 2019).
“Also recorded” adds a separate entry of the source.

What was measured:
[1] = system: embryonic hematopoiesis; assay: RA / DEAB treatment of wild-type and kgg zebrafish embryos; format: in vivo
[2] = system: ES cell-derived embryoid bodies; assay: Hematopoietic colonies from ES cell-derived embryoid bodies treated with DEAB or RA; format: cell-based, mouse; settings: added to EBs between days two to three
Text: DEAB and RA also affected the formation of mouse hematopoietic progenitors arising from ES cell-derived embryoid bodies (EBs). […] See also Davidson et al., 425 Nature 300-06 (2003); Davidson & Zon, 292(2) Devel. Biol. 506-18 (2006).

[3] = system: runx1, cmyb expression; assay: qPCR of HSC gene expression in treated zebrafish embryos; format: in vivo
[4] = system: mouse ES cells; assay: ES cell hematopoietic differentiation assays (M3434 methylcellulose and OP9 colony assays); format: cell-based; settings: indomethacin 20 μM (OP9) and 100 μM (GM)
Description: ES cell hematopoietic differentiation assays were performed as previously described. […] M3434 methylcellulose colony forming and OP9 colony assays were conducted on day 6 and analyzed at […], respectively. Colony type was identified by morphological analysis; duplicate chemical exposures were averaged to determine the reported colony number (n=3 replicates minimum).

[5] = system: runx1/cmyb+ AGM HSCs; assay: Heat shock wnt-pathway transgenic embryos treated with PG drugs: AGM HSC formation; format: in vivo, zebrafish; settings: hs:wnt8 embryos heat shocked at five somites
Description: More specifically, Wnt signaling through its main transcriptional mediator β-catenin plays an important role in controlling tissue patterning, cell fate decisions, and proliferation in many embryonic contexts, including the development and differentiation of organs. […] Whether wnt signaling has a role during HSC formation in zebrafish was determined using heat shock inducible activators and repressors of the wnt pathway. Briefly, wnt-inducible embryos were harvested and heat shocked for twenty minutes at 38° C. Genotypes were sorted by GFP expression, and the AGM HSCs analyzed by runx1/cmyb expression in situ. […] This is the first evidence in any organism that wnt signaling is required for AGM HSC formation.
Additionally, indomethacin and dmPGE2 was used to investigate the interaction of the wnt and prostaglandin pathways during HSC development and in marrow recovery following injury. FIG. 13 reflects the potential points of interaction of the PG and wnt pathways. […] Furthermore, dmPGE2 can rescue the inhibitory effects of dkk activation on AGM HSC formation at 36 hpf, as shown by in situ hybridization for runx1/cmyb.

[6] = system: cmyb/lmo2+ HSCs; assay: Confocal quantification of HSCs in cmyb:GFP x lmo2:dsRed bigenic embryos; format: in vivo, zebrafish; settings: 36 hpf live embryos
Description: A long-acting derivative, 16,16-dimethyl-PGE2 (dmPGE2, 10 μM) caused an increase in runx1/cmyb+ AGM HSCs in 78% of embryos examined (97/124). AGM HSCs were inhibited by indomethacin (10 μM) treatment in 90% of embryos analyzed (92/102). […] Transgenic cmyb:GFP zebrafish with green fluorescent HSCs and myeloid progenitor cells were crossed to lmo2:dsRed fish that have red fluorescent endothelial cells and HSCs to visualize the effects of chemical exposure in vivo. […] FIG. 3.
Live 36 hpf treated bigenic zebrafish embryos were embedded in 1% low-melting point agarose containing 0.4 mg/ml Tricaine-S for confocal imaging. cmyb-GFP transgenic reporter lines were created from a BAC containing the cmyb promoter genomic sequence (Galloway, Zhu, Lin, Zon, unpublished); lmo2:DsRed fish were created as described^27. For HSC quantification, cmyb/lmo2+ positive cells were counted in projections of z-stack images (n=10/treatment).

[7] = system: wnt activity; assay: wnt activity in kidney marrow of irradiated Top:dGFP adults; format: in vivo, zebrafish; settings: day three post irradiation
Description: (§1) To determine if prostaglandin pathway manipulation can alter wnt activity in the kidney marrow repopulation in the adult, the effects of dmPGE2 and indomethacan was examined further in Top:dGFP lines. […] FIG. 14. To discern whether modulation of prostaglandin signaling can modify the wnt mediated effects on kidney marrow recovery following irradiation, wnt genes were activated by heat shock at 38° C. at two days post irradiation and then. exposure to prostaglandin pathway drugs at one day post heat shock. The hs:wnt8-GFP fish were exposed to indomethacin, while the dkk1, axin, and dnTCF transgenic fish were exposed to dmPGE2. Whole kidney marrow was analyzed by FACS on day ten post-irradiation.

[8] = system: CFU-S from murine bone marrow cells; assay: Murine colony-forming units-spleen (CFU-S); format: in vivo, mouse
Description: Two independent BM samples were treated (n=5/treatment×2 replicates) for each variable. Recipient mice were lethally irradiated with a split dose of 10 Gy. 6×10^4 unfractionated dmPGE2 or control-treated BM cells were injected retro-orbitally into irradiated recipient mice. Spleens were dissected on day eight or twelve, weighed and fixed with Bouin's solution; hematopoietic colonies per spleen were counted. 1×10^5 cells/recipient were transplanted after treatment with the cox inhibitors. FACS sorted ckit^+sca1^+lineage^− BM cells were treated as above and transplanted at a dose of either 100 cells/recipient or 300 cells/recipient.

[9] = system: runx1/cmyb+ AGM HSCs; settings: for effect on AGM HSCs in zebrafish embryos (in words): exposure from three somites to 36 hpf, runx1/cmyb staining
Description: A chemical genetic screen was conducted to identify novel pathways that modulate definitive HSC formation during zebrafish embryogenesis. FIG. 1. Genes such as runx1 and cmyb, required for HSC development during mammalian hematopoiesis, are expressed in the ventral wall of the dorsal aorta in a region analogous to the mammalian AGM at thirty-six hours post-fertilization (hpf). […] Wild-type embryos were incubated with individual compounds from the three-somite stage until thirty-six hpf. Probes for runx1 and cmyb were combined and utilized to detect HSCs by in situ hybridization.
Wild-type age-matched embryos were arrayed into 48-well plates (˜5 embryos/well) of individual test compounds and exposed from 3-somites until 36 hpf. […] In situ hybridization for runx1 and cmyb was performed to assess HSCs. Compounds were retested at 10 μM, 20 μM, and 50 μM. Stem cell specificity was assessed using flk1 at 36 hpf. PGE2, PGI2, dmPGE2 and all cox inhibitors (Sigma) were used at 10 μM to 20 μM.
Qualitative scoring (# embryos with altered HSCs/# scored) of runx1/cmyb was conducted using the following criteria: Normal/unchanged=continuous line of runx1/cmyb+ endothelial cells and occasional hematopoietic clusters. Decreased/absent=reduction in runx1/cmyb+ cells, including the presence of large gaps in the line of HSCs, isolated positive cells, or absence of expression. Increased/excess=enhancement in runx1/cmyb^+ cells, including many HSC clusters, a thickened line of HSCs, or ectopic expression.

[10] = system: wnt activity; assay: wnt reporter TOP:dGFP zebrafish embryos; format: in vivo; settings: vs control
Text: Clinical experience in patients with APC mutations has shown that inhibition of prostaglandin synthesis results in decreased wnt mediated polyp formation. […] These interactions were examined in vivo using a wnt reporter zebrafish transgenic line, TOP:dGFP. At fifty-percent epiboly, embryos were subjected either to nothing (control), indomethacin, or PGE2, and the amount of wnt signaling activated in the embryo assessed by GFP induction driven from the wnt binding site. Analysis of alterations in GFP expression in the head was analyzed by in situ hybridization. […] FIG. 12.

[11] = system: kidney marrow precursor cell population; assay: Kidney marrow recovery after irradiation in heat shock wnt transgenic adults treated with PG drugs; format: in vivo, zebrafish; settings: hs:wnt8-GFP adults, day ten post-irradiation
Description: An irradiation recovery assay was also employed to investigate the role of wnt signaling in hematopoietic homeostasis in zebrafish. Transgenic fish expressing wnt-related genes were sublethally irradiated and heat shock gene induction was initiated by overnight incubation at 38° C. on day two post-irradiation. Kidney marrow was harvested at various timepoints post-irradiation as outlined previously for the prostaglandin experiments. FIG. 11. […] Inhibition of wnt signaling, by heat shock dkk or dnTCF, drastically alters the kinetics of marrow recovery and can result in the complete failure of marrow regeneration and lethality.
as §1

[12] = system: PGE2 formation; assay: HPLC-tandem mass spectrometry of PGE2 in zebrafish embryos; format: in vivo; settings: 36 hpf embryos, n=3; untreated 18+/−6
Description: PGE2 and the stable PGI2 metabolite, 6-keto-PGF1α, were measured using HPLC-tandem mass spectrometry. Ethylacetate extracts from homogenized embryos were spiked with the corresponding stable isotope labeled internal standards (d4-PGE2 and d4-6-keto PGF1α) and allowed to react with methoxylamine. The following mass transitions were monitored: m/z 384→272 (PGE), m/z 398→368 (6-keto PGF1α and TxB2).

[13] = system: vasculature (flk1); settings: zebrafish, in vivo, 10 μM
Description: Wild-type age-matched embryos were arrayed into 48-well plates (˜5 embryos/well) of individual test compounds and exposed from 3-somites until 36 hpf. Three compound libraries were utilized: NINDS Custom Collection (1040), SpecPlus Collection (960) and BIOMOL ICCB Known Bioactives (480). […] In situ hybridization for runx1 and cmyb was performed to assess HSCs. Compounds were retested at 10 μM, 20 μM, and 50 μM. Stem cell specificity was assessed using flk1 at 36 hpf. PGE2, PGI2, dmPGE2 and all cox inhibitors (Sigma) were used at 10 μM to 20 μM.

[14] = system: wnt activity; assay: wnt activity in the AGM of TOP:gal mice; settings: mouse, in vivo

## CCN(CC)c1ccc(C=O)cc1 [DEAB]
[1]
  erythroid cells in wild-type embryos: induced an expansion of erythroid cells
  expression of hoxa9a in kgg embryos: failed to rescue
  hematopoiesis in kgg mutants: restored hematopoiesis
[2]
  increase in 'primitive' erythroid colonies (CFU-Ep): five-eight fold

## COc1ccc2c(c1)c(CC(=O)O)c(C)n2C(=O)c1ccc(Cl)cc1 [Indomethacin]
[3]; 10 μM
  cmyb expression by qPCR (in words): significant alterations
[3]; indomethacin 10 μM
  runx1 expression by qPCR, reduction: 50%
[4]
  colony growth: inhibited colony growth
[5]; listed as indo
  effect on wnt8-mediated enhancement of runx1/cmyb expression / HSC induction: reversed
[5]; listed as indomethacin
  effect on wnt8-mediated enhancement of runx1/cmyb expression / HSC induction: can be blocked
[6]
  HSC numbers along the floor of the aorta by confocal microscopy (in words): significantly decreased numbers of HSCs
[7]
  wnt activity (GFP) in kidney marrow of Top:dGFP adults: inhibited GFP expression
[8]; WBM ex vivo 1 μM/10^6 cells, 1×10^5 cells transplanted
  number of CFU-S12, decrease: 70%
[8]; Whole Marrow, 100000 cells transplanted, 1 μM/10^6 cells ex vivo, EtOH 8.8 (2.1)
  CFU-S12 Colony Number: 2.5 (1.4)
[9]; 10 μM
  embryos with AGM HSCs inhibited: 90%
[9]; 10 μM, 36 hpf
  decreased runx1/cmyb+ HSCs (# embryos altered/# scored): 92/102
[9]
  effect on AGM HSCs in zebrafish embryos (in words): reduced stem cells in the aorta
[10]; listed as indo
  wnt activity (GFP expression) in TOP:dGFP embryos: virtual absence of wnt activity
[10]; listed as indomethacin
  wnt activity (GFP expression) in TOP:dGFP embryos: severely reduced GFP expression
[11]; listed as Indo
  effect on wnt-mediated enhancement of the kidney marrow precursor cell population: blocked
[11]; listed as indomethacin
  effect on wnt-mediated enhancement of the kidney marrow precursor cell population: severely diminish
[12]
  PGE2 formation after treatment: < 2 pg/50 embryos
[13]
  embryos with slightly altered intersomitic vessels: 30%
  embryos with slightly altered intersomitic vessels (# altered/# examined): 15/49

## CCCCC[C@H](O)/C=C/[C@H]1[C@H](O)CC(=O)[C@@H]1C/C=C\CCCC(=O)O [PGE2, prostaglandin E2]
[14]
  wnt activity in the AGM of TOP:gal mice: induced wnt activity
[9]; 20 μM, 36 hpf
  increased runx1/cmyb expression (# embryos altered/# scored): 25/49
[9]
  effect on AGM HSCs in zebrafish embryos (in words): stronger expression of runx1/cmyb than PGI2; also recorded: increase moderately
[10]
  wnt activity (GFP expression) in TOP:dGFP embryos: markedly enhanced wnt activity
